According to patent publication US10350206B2, “Benzyl substituted indazoles as BUB1 inhibitors” (Bayer Pharma Aktiengesellschaft, priority 2014, dated 2019):
pIC50: −log10 of the molar value.

Tests used:
[1] = system: HeLa human cervical tumor cells; assay: Proliferation Assay (HeLa+Paclitaxel); assay type: cell-based; settings: 3 nM paclitaxel, test substance 92 hours; read-out: Biological Assay 3: Proliferation Assay (HeLa + Paclitaxel) IC50
Procedure: Proliferation Assay (HeLa+Paclitaxel):
(§1) Cultivated HeLa human cervical tumor cells (DSMZ ACC-57) were plated at a density of 3000 cells/well in a 96-well multititer plate in 200 μL of growth medium supplemented 10% fetal calf serum. After 24 hours, the cells of one plate (zero-point plate) were stained with crystal violet (see below). The medium of the other plates was supplemented with 3 nM of paclitaxel (Sigma-Aldrich) and the cells were incubated at 37° C. After 4 hours the test substances were added in various concentrations (0 μM, as well as in the range of 0.001-10 μM; the final concentration of the solvent dimethyl sulfoxide was adjusted to 0.1%) using a Hewlett-Packard HP D300 Digital Dispenser. The cells were incubated for another 92 hours at 37° C. in the presence of test substances. […] After three washing cycles of the fixed cells with water, the plates were dried at room temperature. The cells were stained by adding 100 μL/measuring point of a 0.1% crystal violet solution (pH 3.0). After three washing cycles of the stained cells with water, the plates were dried at room temperature. The dye was dissolved by adding 100 μL/measuring point of a 10% acetic acid solution. […] The change of cell number, in percent, was calculated by normalization of the measured values to the absorption values of the zero-point plate (=0%) and the 5 absorption of the untreated (0 μm) cells (=100%). The IC50 values were determined by means of a 4 parameter fit.

[2] = system: HeLa human cervical tumor cells; assay: Proliferation assay (HeLa cell line); assay type: cell-based; settings: 96 h, 4 days incubation, crystal violet, read-out: Biological Assay 2: Proliferation assay (HeLa cell line) median IC50
Procedure: as §1, with “Human tumour cells were originally obtained from the American Type Culture Collection (ATCC), the Deutsche Sammlung von Mikroorganismen und Zellkulturen (DSMZ, German Collection of Microorganisms and Cell Cultures), or Epo GmbH Berlin. Cultivated” for “Cultivated”, “below), while the” for “below). The”, “with” for “with 3 nM of paclitaxel (Sigma-Aldrich) and the cells were incubated at 37° C. After 4 hours”, “substances” for “substances were added”, “4 days” for “another 92 hours at 37° C.”, “the” for “the 5”

[3] = system: Bub1 kinase (pre-induced phospho-histone 2A); assay: H2A Abrogation-Assay (cell-based mechanistic assay, pre-treatment with Nocodazole); settings: Nocodazole 1 μg/ml 16 h, then test compound 1 h; read-out: Biological Assay 4.2: H2A Abrogation IC50
Procedure: Biological Assay 4.2: Abrogation-Assay
Cell-Based Mechanistic Assay: Changes of Phosphorylation Status of Pre-Induced Phospho-Histone 2A by Inhibition of Kinase Activity of Bub1
This assay measures the inhibition of histone 2A phosphorylation, which was induced by pre-treatment of the cells with Nocodazole, by a Bub1 kinase inhibitor. 25000 cells (cells were ordered from ATCC) were seeded in 96 well plate for 5 h at 37° C. Cells were treated with Nocodazole (1 μg/ml). After 16h varying concentrations (between 3 nM and 10 μM) of test compounds were added and the cells were incubated for another 1h. Cells were fixed (20 min, Fixing solution R&D), washed three times with PBS and blocked with Odyssey blocking buffer before incubating with the primary antibody against phosphorylated H2A (5 μg/ml ABIN482721) overnight at 2-8° C. After washing, secondary IRDye-labeled antibody mix with cell stains was added for 1h and washed again with PBS. Plates were scanned with LiCor Odyssey Infrared Imager CLx at 800 nm for P-H2A and at 700 nm for cell stains Draq5/Sapphire. The quotient of 800 nm and 700 nm for Nocodazole only treated cells was set as 100% and the quotient of 800 nm and 700 nm of untreated cells was set as 0%. […] The IC50 values were determined by means of a 4 parameter fit.
(§2) Histone H2A is an immediate intracellular substrate of Bub1 kinase. Determination of the phosphorylation status of Histone H2A provides a direct measure of the intracellular activity of Bub1 kinase.

[4] = system: Bub1 kinase (histone 2A phosphorylation); assay: H2A Formation-Assay (cell-based mechanistic assay, co-treatment with Nocodazole); settings: 16 h, Nocodazole 1 μg/ml together with test compound for 16 h; read-out: Biological Assay 4.1: H2A Formation IC50
Procedure: Biological Assay 4.1: Formation-Assay
Cell-Based Mechanistic Assay: Changes of Phosphorylation Status of Histone 2A by Inhibition of Kinase Activity of Bub1
This assay determines the suppression of histone 2A phosphorylation by a Bub1 kinase inhibitor during co-treatment with Nocodazole. 25000 cells (cells were ordered from ATCC) were seeded in 96 well plate for 5 h at 37° C. Cells were treated with Nocodazole (1 μg/ml) and varying concentrations (between 3 nM and 10 μM) of test compounds for 16h. Cells were fixed (20 min, Fixing solution R&D), washed three times with PBS and blocked with Odyssey blocking buffer before incubating with the primary antibody against phosphorylated H2A (5 μg/ml ABIN482721) overnight at […]. After washing, secondary IRDye-labeled antibody mix with cell stains was added for 1h and washed again with PBS. Plates were scanned with LiCor Odyssey Infrared Imager CLx at 800 nm for P-H2A and at 700 nm for cell stains Draq5/Sapphire. The quotient of 800 nm and 700 nm for Nocodazole only treated cells was set as 100% and the quotient of 800 nm and 700 nm of untreated cells was set as 0%. […] The IC50 values were determined by means of a 4 parameter fit.
as §2

[5] = target: T1, catalytic domain of human Bub1 (amino acids 704-1085) (Homo sapiens, UniProt O43683); assay: Bub1 kinase assay (TR-FRET); assay type: biochemical; settings: 10 μM ATP, 60 min reaction, pH 7.5; read-out: Biological Assay 1: Bub1 kinase assay median IC50
T1 construct: catalytic domain of human Bub1 (amino acids 704-1085); His6 (N); made in house; host or cells: Hi5 insect cells
Procedure: To this end, 100-fold concentrated compound solutions (in DMSO) were previously prepared by serial dilution (1:3.4) of 2 mM stocks in a clear low volume 384-well source microtiter plate (Greiner Bio-One, Frickenhausen, Germany), from which 50 nL of compounds were transferred into a black low volume test microtiter plate from the same supplier. […] The resulting mixture (5 μL final volume) was incubated at 22° during 60 min., and the reaction was stopped by the addition of 5 μL of an aqueous EDTA-solution (50 mM EDTA, in 100 mM HEPES pH 7.5 and 0.2% (w/v) bovine serum albumin) which also contained the TR-FRET detection reagents (0.2 μM streptavidin-XL665 [Cisbio Bioassays, Codolet, France] and 1 nM anti-phosho-Serine antibody [Merck Millipore, cat. #35-001] and 0.4 nM LANCE EU-W1024 labeled anti-mouse IgG antibody [Perkin-Elmer, product no. AD0077, alternatively a Terbium-cryptate-labeled anti-mouse IgG antibody from Cisbio Bioassays can be used]). The stopped reaction mixture was further incubated 1 h at 22° C. in order to allow the formation of complexes between peptides and detection reagents. Subsequently, the amount of product was evaluated by measurement of the resonance energy transfer from the Eu-chelate-antibody complex recognizing the Phosphoserine residue to the streptavidin-XL665 bound to the biotin moiety of the peptide. […] IC50 values were calculated by fitting the normalized inhibition data to a 4-parameter logistic equation (Minimum, Maximum, IC50, Hill; Y=Max+(Min−Max)/(1+(X/IC50)Hill)).

T1 sequence (O43683 704-1085): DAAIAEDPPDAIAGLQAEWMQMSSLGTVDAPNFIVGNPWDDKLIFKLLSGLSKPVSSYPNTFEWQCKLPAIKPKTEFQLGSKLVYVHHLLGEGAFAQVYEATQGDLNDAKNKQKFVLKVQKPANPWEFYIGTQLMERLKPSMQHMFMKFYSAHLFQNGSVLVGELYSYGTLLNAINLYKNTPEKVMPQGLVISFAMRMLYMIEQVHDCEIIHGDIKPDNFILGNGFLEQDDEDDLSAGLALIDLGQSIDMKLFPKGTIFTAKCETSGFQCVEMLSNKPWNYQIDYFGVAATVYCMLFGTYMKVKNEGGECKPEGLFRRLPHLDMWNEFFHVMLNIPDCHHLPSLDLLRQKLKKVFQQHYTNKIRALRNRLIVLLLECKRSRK

Row | SMILES | pIC50 [1] | pIC50 [2] | pIC50 [3] | pIC50 [4] | pIC50 [5]
1 | COc1cnc(-c2nn(Cc3c(F)cc(OCCO)cc3F)c3ccccc23)nc1Nc1ccncc1Cl [Example 2-1-1, 2-{4-[(3-{4-[(3-chloropyridin-4-yl)amino]-5-methoxypyrimidin-2-yl}-1 H-indazol-1-yl)methyl]-3,5-difluorophenoxy}ethanol] | 6.62 | 5.39 | 8.00 | 7.03 | 7.89
2 | COc1cnc(-c2nn(Cc3c(F)cc(OCCO)cc3F)c3ccccc23)nc1Nc1cc(C)ncc1F [Example 2-1-12, 2-{3,5-difluoro-4-[(3-{4-[(5-fluoro-2-methylpyridin-4-yl)amino]-5-methoxypyrimidin-2-yl}-1H-indazol-1-yl)methyl]phenoxy}ethanol] | 6.38 | < 5.00 | 7.96 | 8.22 | 7.48
3 | COc1cnc(-c2nn(Cc3c(F)cc(OCCO)cc3F)c3ccccc23)nc1Nc1ccncc1F [Example 2-1-6, 2-{3,5-difluoro-4-[(3-{4-[(3-fluoropyridin-4-yl)amino]-5-methoxypyrimidin-2-yl}-1H-indazol-1-yl)methyl]phenoxy}ethanol] | 6.43 | 5.07 | 6.05 | 7.25 | 8.11
4 | COc1cnc(-c2nn(Cc3c(F)cc(OCCO)cc3F)c3ccccc23)nc1Nc1ccncc1C [Example 2-1-5, 2-{3,5-difluoro-4-[(3-{5-methoxy-4-[(3-methylpyridin-4-yl)amino]pyrimidin-2-yl}-1H-indazol-1-yl)methyl]phenoxy}ethanol] | 6.82 | 5.51 | 6.22 | 8.16 | 8.00
5 | COc1cnc(-c2nn(Cc3c(F)cc(OC[C@H](C)CO)cc3F)c3ccccc23)nc1Nc1ccnc(C)n1 [Example 2-3-4, (2R)-3-{3,5-difluoro-4-[(3-{5-methoxy-4-[(2-methylpyrimidin-4-yl)amino]pyrimidin-2-yl}-1H-indazol-1-yl)methyl]phenoxy}-2-methylpropan-1-ol] | 6.82 | < 5.00 | 8.72 | 8.62 | 7.37

Stronger by pIC50 [1], values ahead:

Row | pIC50 [1] | pIC50 [2] | pIC50 [3] | pIC50 [4] | pIC50 [5] | SMILES
6 | 6.92 | < 5.00 | 9.57 | 7.28 | 7.72 | COc1cnc(-c2nn(Cc3c(F)cc(OC[C@H](C)CO)cc3F)c3ccccc23)nc1Nc1ccnc(NC(C)=O)c1 [Example 2-3-6, N-[4-({2-[1-(2,6-difluoro-4-{[(2R)-3-hydroxy-2-methylpropyl]oxy}benzyl)-1H-indazol-3-yl]-5-methoxypyrimidin-4-yl}amino)pyridin-2-yl]acetamide]
7 | 6.96 | 5.16 | 9.51 | 7.20 | 7.55 | COc1cnccc1Nc1nc(-c2nn(Cc3c(F)cc(OC[C@H](C)CO)cc3F)c3ccccc23)ncc1OC [Example 2-3-7, (2R)-3-{3,5-difluoro-4-[(3-{5-methoxy-4-[(3-methoxypyridin-4-yl)amino]pyrimidin-2-yl}-1H-indazol-1-yl)methyl]phenoxy}-2-methylpropan-1-ol]
8 | 7.00 | < 5.00 | 6.82 | 8.09 | 8.08 | COc1cnc(-c2nn(Cc3c(F)cc(OCCO)cc3F)c3ccccc23)nc1Nc1ccnc(NC(C)=O)c1 [Example 2-1-4, N-{4-[(2-{1-[2,6-difluoro-4-(2-hydroxyethoxy)benzyl]-1H-indazol-3-yl}-5-methoxypyrimidin-4-yl)amino]pyridin-2-yl}acetamide]
9 | 7.14 | < 5.00 | 9.14 | 7.42 | 7.82 | COc1cnc(-c2nn(Cc3c(F)cc(OCCCO)cc3F)c3ccccc23)nc1Nc1cc(C)ncc1C [Example 2-3-1, 3-{4-[(3-{4-[(2,5-dimethylpyridin-4-yl)amino]-5-methoxypyrimidin-2-yl}-1 H-indazol-1-yl)methyl]-3,5-difluorophenoxy}propan-1-ol]
